{"source": "patent US8916498B2", "about": "“Safening 6-(trisubstituted phenyl)-4-amino-2-pyridinecarboxylate herbicide injury on direct seeded and transplanted paddy rice” (priority 2008, dated 2014)", "key": {"ORYSA (rice)": {"test_system": "ORYSA (rice)", "experiment": "Postemergence herbicidal safening in direct seeded rice, visual injury", "conditions": "for Visual Injury (%) ‘Lemont’ ORYSA Obs / ‘M202’ ORYSA Visual Injury (%) Obs: after 3 weeks", "text": "A=observed efficacy of active ingredient A at the same concentration as used in the mixture.\nB=observed efficacy of active ingredient B at the same concentration as used in the mixture."}, "CYPDI": {"test_system": "CYPDI", "experiment": "Postemergence herbicidal safening in direct seeded rice, visual injury on weed", "assay_type": "in vivo", "conditions": "alone, after 3 weeks"}, "ECHCO": {"test_system": "ECHCO", "experiment": "Postemergence herbicidal safening in direct seeded rice, visual injury on weed", "assay_type": "in vivo", "conditions": "alone, after 3 weeks"}, "SEBEX": {"test_system": "SEBEX", "experiment": "Postemergence herbicidal safening in direct seeded rice, visual injury on weed", "assay_type": "in vivo", "conditions": "alone, after 3 weeks"}, "[1]": {"conditions": "alone, 17.5 g ae/ha, after 3 weeks (Table 14)"}, "[2]": {"conditions": "alone, 35 g ae/ha, after 3 weeks (Table 14)"}, "[3]": {"conditions": "alone, 8.75 g ae/ha, after 3 weeks (Table 14)"}, "[4]": {"conditions": "No safener, 17.5 g ai/ha, after 3 weeks (Table 12)"}}, "note": "Values joined by “and” are separate entries in the source; they are usually repeats but may differ in a detail not shown here. Identical values can stand only once."}
{"smiles": "O=C(C(Cl)Cl)N1CCOC12CCCCC2", "note": "[AD67]", "values": [{"measurement": "ORYSA Visual Injury (%) ‘Lemont’ Obs", "setting": "ORYSA (rice); safener 140 g ai/ha alone", "value": 0, "unit": "%"}, {"measurement": "ORYSA Visual Injury (%) ‘M202’ Obs", "setting": "ORYSA (rice); safener 140 g ai/ha alone", "value": 0, "unit": "%"}, {"measurement": "ORYSA Visual Injury (%) ‘M202’ Obs", "setting": "ORYSA (rice); safener 280 g ai/ha alone", "value": 15, "unit": "%"}]}
{"smiles": "CCC(C)OC(=O)COc1ccc(Cl)c2cccnc12", "note": "(stereo not shown) [Cloquintocet 1-Methylpropyl Ester]", "values": [{"measurement": "Visual Injury (%) CYPDI Obs", "setting": "CYPDI; 280 g ae/ha", "value": 0, "unit": "%"}, {"measurement": "Visual Injury (%) ECHCO Obs", "setting": "ECHCO; 280 g ae/ha", "value": 0, "unit": "%"}, {"measurement": "Visual Injury (%) ‘Lemont’ ORYSA Obs", "setting": "ORYSA (rice); alone, 280 g ae/ha", "value": 0, "unit": "%"}, {"measurement": "Visual Injury (%) SEBEX Obs", "setting": "SEBEX; 280 g ae/ha", "value": 0, "unit": "%"}]}
{"smiles": "CCOC(=O)COc1ccc(Cl)c2cccnc12", "note": "[Cloquintocet Ethyl Ester]", "values": [{"measurement": "Visual Injury (%) CYPDI Obs", "setting": "CYPDI; 280 g ae/ha", "value": 0, "unit": "%"}, {"measurement": "Visual Injury (%) ECHCO Obs", "setting": "ECHCO; 280 g ae/ha", "value": 0, "unit": "%"}, {"measurement": "Visual Injury (%) ‘Lemont’ ORYSA Obs", "setting": "ORYSA (rice); alone, 280 g ae/ha", "value": 0, "unit": "%"}, {"measurement": "Visual Injury (%) SEBEX Obs", "setting": "SEBEX; 280 g ae/ha", "value": 0, "unit": "%"}]}
{"smiles": "COC(=O)COc1ccc(Cl)c2cccnc12", "note": "[Cloquintocet Methyl Ester]", "values": [{"measurement": "Visual Injury (%) CYPDI Obs", "setting": "CYPDI; 280 g ae/ha", "value": 0, "unit": "%"}, {"measurement": "Visual Injury (%) ECHCO Obs", "setting": "ECHCO; 280 g ae/ha", "value": 0, "unit": "%"}, {"measurement": "Visual Injury (%) ‘Lemont’ ORYSA Obs", "setting": "ORYSA (rice); alone, 280 g ae/ha", "value": 0, "unit": "%"}, {"measurement": "Visual Injury (%) SEBEX Obs", "setting": "SEBEX; 280 g ae/ha", "value": 0, "unit": "%"}]}
{"smiles": "CC(C)OC(=O)COc1ccc(Cl)c2cccnc12", "note": "[Cloquintocet i-Propyl Ester]", "values": [{"measurement": "Visual Injury (%) CYPDI Obs", "setting": "CYPDI; 280 g ae/ha", "value": 0, "unit": "%"}, {"measurement": "Visual Injury (%) ECHCO Obs", "setting": "ECHCO; 280 g ae/ha", "value": 0, "unit": "%"}, {"measurement": "Visual Injury (%) ‘Lemont’ ORYSA Obs", "setting": "ORYSA (rice); alone, 280 g ae/ha", "value": 0, "unit": "%"}, {"measurement": "Visual Injury (%) SEBEX Obs", "setting": "SEBEX; 280 g ae/ha", "value": 0, "unit": "%"}]}
{"smiles": "C=CCOC(=O)c1nc(-c2ccc(Cl)c(OC)c2F)cc(N)c1Cl", "note": "[Compound 1 Allyl Ester]", "values": [{"measurement": "ORYSA Visual Injury (%) ‘Cheniere’ Obs", "setting": "ORYSA (rice); [1]", "value": 55, "unit": "%"}, {"measurement": "ORYSA Visual Injury (%) ‘Clearfield’ Obs", "setting": "ORYSA (rice); [1]", "value": 50, "unit": "%"}, {"measurement": "ORYSA Visual Injury (%) ‘Cocodrie’ Obs", "setting": "ORYSA (rice); [1]", "value": 30, "unit": "%"}, {"measurement": "ORYSA Visual Injury (%) ‘Lemont’ Obs", "setting": "ORYSA (rice); [1]", "value": 25, "unit": "%"}, {"measurement": "ORYSA Visual Injury (%) ‘M202’ Obs", "setting": "ORYSA (rice); [1]", "value": 55, "unit": "%"}, {"measurement": "ORYSA Visual Injury (%) ‘Wells’ Obs", "setting": "ORYSA (rice); [1]", "value": 10, "unit": "%"}]}
{"smiles": "CCCCOCCOC(=O)c1nc(-c2ccc(Cl)c(OC)c2F)cc(N)c1Cl", "note": "[Compound 1 Et butoxy Ester]", "values": [{"measurement": "ORYSA Visual Injury (%) ‘Cheniere’ Obs", "setting": "ORYSA (rice); [2]", "value": 50, "unit": "%"}, {"measurement": "ORYSA Visual Injury (%) ‘Clearfield’ Obs", "setting": "ORYSA (rice); [2]", "value": 40, "unit": "%"}, {"measurement": "ORYSA Visual Injury (%) ‘Cocodrie’ Obs", "setting": "ORYSA (rice); [2]", "value": 50, "unit": "%"}, {"measurement": "ORYSA Visual Injury (%) ‘Lemont’ Obs", "setting": "ORYSA (rice); [2]", "value": 50, "unit": "%"}, {"measurement": "ORYSA Visual Injury (%) ‘M202’ Obs", "setting": "ORYSA (rice); [2]", "value": 30, "unit": "%"}, {"measurement": "ORYSA Visual Injury (%) ‘Wells’ Obs", "setting": "ORYSA (rice); [2]", "value": 15, "unit": "%"}]}
{"smiles": "COc1c(Cl)ccc(-c2cc(N)c(Cl)c(C(=O)[O-])n2)c1F.[K+]", "note": "[Compound 1 K^+ Salt]", "values": [{"measurement": "ORYSA Visual Injury (%) ‘Cheniere’ Obs", "setting": "ORYSA (rice); [3]", "value": 50, "unit": "%"}, {"measurement": "ORYSA Visual Injury (%) ‘Clearfield’ Obs", "setting": "ORYSA (rice); [3]", "value": 45, "unit": "%"}, {"measurement": "ORYSA Visual Injury (%) ‘Cocodrie’ Obs", "setting": "ORYSA (rice); [3]", "value": 30, "unit": "%"}, {"measurement": "ORYSA Visual Injury (%) ‘Lemont’ Obs", "setting": "ORYSA (rice); [3]", "value": 40, "unit": "%"}, {"measurement": "ORYSA Visual Injury (%) ‘M202’ Obs", "setting": "ORYSA (rice); [3]", "value": 50, "unit": "%"}, {"measurement": "ORYSA Visual Injury (%) ‘Wells’ Obs", "setting": "ORYSA (rice); [3]", "value": 0, "unit": "%"}]}
{"smiles": "COC(=O)c1nc(-c2ccc(Cl)c(OC)c2F)cc(N)c1Cl", "note": "[Compound 1 Methyl Ester]", "values": [{"measurement": "Visual Injury (%) CYPDI Obs", "setting": "CYPDI; 17.5 g ae/ha", "value": 100, "unit": "%"}, {"measurement": "Visual Injury (%) CYPDI Obs", "setting": "CYPDI; 35 g ae/ha", "value": 100, "unit": "%"}, {"measurement": "Visual Injury (%) CYPDI Obs", "setting": "CYPDI; 35 g ai/ha", "value": 100, "unit": "%"}, {"measurement": "Visual Injury (%) CYPDI Obs", "setting": "CYPDI; 70 g ae/ha", "value": 100, "unit": "%"}, {"measurement": "Visual Injury (%) CYPDI Obs", "setting": "CYPDI; 70 g ai/ha", "value": 100, "unit": "%"}, {"measurement": "Visual Injury (%) ECHCO Obs", "setting": "ECHCO; 17.5 g ae/ha", "value": 99, "unit": "%"}, {"measurement": "Visual Injury (%) ECHCO Obs", "setting": "ECHCO; 35 g ae/ha", "value": 99, "unit": "%"}, {"measurement": "Visual Injury (%) ECHCO Obs", "setting": "ECHCO; 35 g ai/ha", "value": "95% and 100%"}, {"measurement": "Visual Injury (%) ECHCO Obs", "setting": "ECHCO; 70 g ae/ha", "value": 100, "unit": "%"}, {"measurement": "Visual Injury (%) ECHCO Obs", "setting": "ECHCO; 70 g ai/ha", "value": "99% and 100%"}, {"measurement": "‘M202’ ORYSA Visual Injury (%) Obs", "setting": "ORYSA (rice); No safener, 17.5 g ai/ha", "value": 15.0, "unit": "%"}, {"measurement": "ORYSA Visual Injury (%) ‘Cheniere’ Obs", "setting": "ORYSA (rice); [4]", "value": 20, "unit": "%"}, {"measurement": "ORYSA Visual Injury (%) ‘Cocodrie’ Obs", "setting": "ORYSA (rice); [4]", "value": 13, "unit": "%"}, {"measurement": "ORYSA Visual Injury (%) ‘M202’ Obs", "setting": "ORYSA (rice); [4]", "value": 45, "unit": "%"}, {"measurement": "‘M202’ ORYSA Visual Injury (%) Obs", "setting": "ORYSA (rice); No safener, 35 g ai/ha", "value": 35.0, "unit": "%"}, {"measurement": "Visual Injury (%) ‘Lemont’ ORYSA Obs", "setting": "ORYSA (rice); alone, 17.5 g ae/ha", "value": 15, "unit": "%"}, {"measurement": "ORYSA Visual Injury (%) ‘Cheniere’ Obs", "setting": "ORYSA (rice); [1]", "value": 85, "unit": "%"}, {"measurement": "ORYSA Visual Injury (%) ‘Clearfield’ Obs", "setting": "ORYSA (rice); [1]", "value": 45, "unit": "%"}, {"measurement": "ORYSA Visual Injury (%) ‘Cocodrie’ Obs", "setting": "ORYSA (rice); [1]", "value": 55, "unit": "%"}, {"measurement": "ORYSA Visual Injury (%) ‘Lemont’ Obs", "setting": "ORYSA (rice); [1]", "value": 40, "unit": "%"}, {"measurement": "ORYSA Visual Injury (%) ‘M202’ Obs", "setting": "ORYSA (rice); [1]", "value": 25, "unit": "%"}, {"measurement": "ORYSA Visual Injury (%) ‘Wells’ Obs", "setting": "ORYSA (rice); [1]", "value": 10, "unit": "%"}, {"measurement": "Visual Injury (%) ‘Lemont’ ORYSA Obs", "setting": "ORYSA (rice); alone, 35 g ae/ha", "value": 35, "unit": "%"}, {"measurement": "Visual Injury (%) ‘Lemont’ ORYSA Obs", "setting": "ORYSA (rice); alone, 70 g ae/ha", "value": 45, "unit": "%"}, {"measurement": "Visual Injury (%) ‘Lemont’ ORYSA Obs", "setting": "ORYSA (rice); alone, 70 g ai/ha", "value": "50% and 25%"}, {"measurement": "Visual Injury (%) SEBEX Obs", "setting": "SEBEX; 17.5 g ae/ha", "value": 100, "unit": "%"}, {"measurement": "Visual Injury (%) SEBEX Obs", "setting": "SEBEX; 35 g ae/ha", "value": 100, "unit": "%"}, {"measurement": "Visual Injury (%) SEBEX Obs", "setting": "SEBEX; 35 g ai/ha", "value": 100, "unit": "%"}, {"measurement": "Visual Injury (%) SEBEX Obs", "setting": "SEBEX; 70 g ae/ha", "value": 100, "unit": "%"}, {"measurement": "Visual Injury (%) SEBEX Obs", "setting": "SEBEX; 70 g ai/ha", "value": 100, "unit": "%"}]}
